# Source: patent US20250163119A1, “COMPOUNDS FOR THE TREATMENT OF DIABETES OR OBESITY” (Eli Lilly and Company, priority 2023, published 2025)
# Where “and” joins values, the source holds several entries; their conditions need not be identical. Identical values can stand only once. Like-named read-outs stand apart in the source and are kept apart here. *1 amine or outer side, *2 acyl side, *3 side chain or, on linkers, in order; H or OH if unused. Side-chain parts run from the residue outwards. [ ]: non-standard residue; d: D form. The star is where a group is joined. C20 diacid = O=C(O)CCCCCCCCCCCCCCCCCCC(=O)*; γGlu = O=C(O)[C@H](CCC(=O)[*:2])N[*:1]; εLys = N[C@@H](CCCCN[*:1])C(=O)[*:2]; pGlu = O=C1CC[C@@H](C(=O)O)N1; αMeL = CC(C)C[C@](C)(N)C(=O)O; AEEA = NCCOCCOCC(=O)O; Aib = CC(C)(N)C(=O)O
# Legend:
# [1] = Pharmacokinetics in Cynomolgus monkeys, single subcutaneous or intravenous dose; assay type: in vivo
# Description: (§1) Plasma concentrations of compounds were determined by LC/MS methods. For each assay, the compound and an internal standard (IS), were extracted from 100% mouse, rat, pig, or monkey plasma (70 μL) using Isopropanol-Methanol. Two distinct layers were formed upon centrifugation with the compound and the IS located in the supernatant layer. An aliquot of the supernatant (150 μL) was transferred to a Waters Sirocco Protein Precipitation Plate. The supernatant was eluted using a positive pressure manifold. The supernatant was mixed with 100-2 Water-Formic acid (400 μL) in a pretreated Sep-Pak tC18 SPE plate and eluted to waste. The peptide and IS were eluted with Acetonitrile-Formic acid (100 μL) in 2 steps (50 μL each step). The elution (40 μL) from SPE plate was mixed with diluent solution (1.875 μL 5× invitrosol and 3.125 μL 1% formic acid in water, 80 μL). A final sample (10 μl) was loaded onto a Xselect CSH C18 IS column (3.5 μm 2.1×20 mm). The column effluent was directed into a Thermo Fisher Scientific Orbitrap (Exploris 240) mass spectrometer for detection and quantitation.
# Male and female Cynomolgus monkeys were administered a single subcutaneous dose or intravenous dose (183 to 190 nmol/kg) of compound in 40 mM Tris-HCl 5% D-mannitol (pH 8) at a volume of 0.5 mL/kg. Blood was collected from each animal at 0.5, 3, 6, 24, 48, 72, 96, 168, 240, 336, 408, and 504 hours postdose for pharmacokinetic characterization.
# [2] = Pharmacokinetics in CD-1 mice, single 100 nmol/kg subcutaneous dose; assay type: in vivo; details: mouse, plasma, sc, male CD-1 mice, mean
# Description: as §1
# Male CD-1 mice were administered a single subcutaneous dose (100 nmol/kg) of compound in 40 mM Tris-HCl 5% D-mannitol (pH 8) at a volume of 5 mL/kg. Blood was collected at 6, 24, 48, 96, 168, 240, 288, and 336 hours postdose for pharmacokinetic characterization.
# [3] = test system: pre-existing antibodies (ADA) in treatment-naive normal human serum; experiment: Pre-existing reactivity (ACE assay format); assay type: binding; details: for Pre-existing Reactivity 90th percentile T2 inhibition >50 donors: ACE assay format
# Description: This assay assessed the presence of pre-existing antibodies (ADA) against the tested molecules in treatment-naive normal human serum (NHS). Diluted NHS was incubated overnight on a Pierce Streptavidin plate coated with biotinylated tested molecules. On the following day, the captured binding proteins were acid eluted, hard-coated to a Mesoscale (MSD) plate, and detected with a combination of biotin-labeled molecule and ruthenium-labeled streptavidin. If anti-drug antibodies were present, they would bind the labeled drug and the resulting signal was referred to as Tier 1 signal (expressed as electrochemiluminescence). […] The presence of pre-existing anti-drug antibodies was expressed as magnitude of the 90th percentile of Tier 2 inhibition. The 90th percentile of Tier 2 inhibition is a statistical tool to assess the magnitude of specificity of Tier 1 reactivity. This 90th percentile was used to rank molecules in terms of ADA risk.
# [4] = both sexes, cynomolgus monkey, plasma, iv, 190 nmol/kg, single intravenous dose 190 nmol/kg, Mean
# [5] = both sexes, cynomolgus monkey, plasma, iv, 190 nmol/kg, single intravenous dose 190 nmol/kg, individual animal
# [6] = single intravenous dose 190 nmol/kg, individual animal
# [7] = single subcutaneous dose 190 nmol/kg, individual animal
# [8] = both sexes, cynomolgus monkey, plasma, iv, 187 nmol/kg, single intravenous dose 187 nmol/kg, Mean
# [9] = both sexes, cynomolgus monkey, plasma, iv, 187 nmol/kg, single intravenous dose 187 nmol/kg, individual animal
# [10] = single intravenous dose 187 nmol/kg, individual animal
# [11] = single subcutaneous dose 187 nmol/kg, individual animal
# [12] = both sexes, cynomolgus monkey, plasma, iv, 183 nmol/kg, single intravenous dose 183 nmol/kg, Mean
# [13] = both sexes, cynomolgus monkey, plasma, iv, 183 nmol/kg, single intravenous dose 183 nmol/kg, individual animal
# [14] = single intravenous dose 183 nmol/kg, individual animal
# [15] = single subcutaneous dose 183 nmol/kg, individual animal
substance,measurement,setting,value
{C20 diacid-εLys-AEEA-γGlu}-GSPSIVTS[αMeL]DVPT[Aib][αMeL]LQKILEQERAEKARQQATEAAEILAQV-NH2 [SEQ ID NO: 25],clearance,[1]; [4],11.5 mL/day/kg
same,half-life,[1]; [4],113 h
same,clearance,[1]; [5],12.8 mL/day/kg
same,half-life,[1]; [5],100 h
same,half-life,"[1]; both sexes, cynomolgus monkey, plasma, sc, 190 nmol/kg, single subcutaneous dose 190 nmol/kg, Mean",199 h
same,CL/F,"[1]; both sexes, cynomolgus monkey, plasma, sc, 190 nmol/kg, single subcutaneous dose 190 nmol/kg, Mean, read-out: CL/F (converted)",12.3 mL/day/kg
same,Tmax,"[1]; both sexes, cynomolgus monkey, plasma, sc, 190 nmol/kg, single subcutaneous dose 190 nmol/kg, Mean, read-out: Tmax",24 h
same,half-life,"[1]; both sexes, cynomolgus monkey, plasma, sc, 190 nmol/kg, single subcutaneous dose 190 nmol/kg, individual animal",184 h
same,CL/F,"[1]; both sexes, cynomolgus monkey, plasma, sc, 190 nmol/kg, single subcutaneous dose 190 nmol/kg, individual animal, read-out: CL/F (converted)",14.4 mL/day/kg
same,Tmax,"[1]; both sexes, cynomolgus monkey, plasma, sc, 190 nmol/kg, single subcutaneous dose 190 nmol/kg, individual animal, read-out: Tmax",24 h
same,AUC0-inf,"[1]; both sexes, cynomolgus monkey, plasma, sc, single subcutaneous dose 190 nmol/kg, Mean, read-out: AUC0-inf",458 µM·h
same,Cmax,"[1]; both sexes, cynomolgus monkey, plasma, sc, single subcutaneous dose 190 nmol/kg, Mean, read-out: Cmax",1610 nM
same,AUC0-inf,"[1]; both sexes, cynomolgus monkey, plasma, single intravenous dose 190 nmol/kg, Mean, read-out: AUC0-inf",402 µM·h
same,C0,"[1]; both sexes, cynomolgus monkey, plasma, single intravenous dose 190 nmol/kg, Mean, read-out: C0",3500 nM
same,AUC0-inf,[1]; [6],355 µM·h and 449 µM·h
same,C0,[1]; [6],3040 nM and 3960 nM
same,CL,[1]; [6],10.1 mL/day/kg
same,T1/2,[1]; [6],126 h
same,AUC0-inf,[1]; [7],364 µM·h and 551 µM·h
same,CL/F,[1]; [7],10.2 mL/day/kg
same,Cmax,[1]; [7],1540 nM and 1680 nM
same,T1/2,[1]; [7],214 h
same,AUC0-inf,[2],25 µM·h
same,CL/F,[2],96.2 mL/day/kg
same,Cmax,[2],366 nM
same,Tmax,[2],24 h
same,half-life,[2],32.5 h
same,Pre-existing Reactivity 90th percentile T2 inhibition >50 donors,[3],4.5%
"Ac-GSPSIVTS[αMeL]DVPT[Aib][αMeL]LQKILEQERAEKARQQAK([γGlu-AEEA-εLys-C20 diacid])EAAEILAQV-NH2 [SEQ ID NO: 1, Ac-GSPSIVTS αMeL DVPT Aib αMeL LQKILEQERAEKARQQAK(γE-(2-[2-(2-Amino-ethoxy)-ethoxy]-acetyl)-ϵK-CO-(CH2)18-CO2H)EAAEILAQV-NH2]",clearance,[1]; [8],14.7 mL/day/kg
same,half-life,[1]; [8],91.6 h
same,clearance,[1]; [9],12.2 mL/day/kg
same,half-life,[1]; [9],91.9 h
same,half-life,"[1]; both sexes, cynomolgus monkey, plasma, sc, 187 nmol/kg, single subcutaneous dose 187 nmol/kg, Mean",81.9 h
same,CL/F,"[1]; both sexes, cynomolgus monkey, plasma, sc, 187 nmol/kg, single subcutaneous dose 187 nmol/kg, Mean, read-out: CL/F (converted)",19.5 mL/day/kg
same,Tmax,"[1]; both sexes, cynomolgus monkey, plasma, sc, 187 nmol/kg, single subcutaneous dose 187 nmol/kg, Mean, read-out: Tmax",48 h
same,half-life,"[1]; both sexes, cynomolgus monkey, plasma, sc, 187 nmol/kg, single subcutaneous dose 187 nmol/kg, individual animal",72 h
same,CL/F,"[1]; both sexes, cynomolgus monkey, plasma, sc, 187 nmol/kg, single subcutaneous dose 187 nmol/kg, individual animal, read-out: CL/F (converted)",20.8 mL/day/kg
same,Tmax,"[1]; both sexes, cynomolgus monkey, plasma, sc, 187 nmol/kg, single subcutaneous dose 187 nmol/kg, individual animal, read-out: Tmax",48 h
same,AUC0-inf,"[1]; both sexes, cynomolgus monkey, plasma, sc, single subcutaneous dose 187 nmol/kg, Mean, read-out: AUC0-inf",238 µM·h
same,Cmax,"[1]; both sexes, cynomolgus monkey, plasma, sc, single subcutaneous dose 187 nmol/kg, Mean, read-out: Cmax",1180 nM
same,AUC0-inf,"[1]; both sexes, cynomolgus monkey, plasma, single intravenous dose 187 nmol/kg, Mean, read-out: AUC0-inf",315 µM·h
same,C0,"[1]; both sexes, cynomolgus monkey, plasma, single intravenous dose 187 nmol/kg, Mean, read-out: C0",4600 nM
same,AUC0-inf,[1]; [10],369 µM·h and 261 µM·h
same,C0,[1]; [10],5040 nM and 4150 nM
same,CL,[1]; [10],17.2 mL/day/kg
same,T1/2,[1]; [10],91.3 h
same,AUC0-inf,[1]; [11],221 µM·h and 255 µM·h
same,CL/F,[1]; [11],18.1 mL/day/kg
same,Cmax,[1]; [11],1100 nM and 1260 nM
same,T1/2,[1]; [11],91.7 h
same,AUC0-inf,[2],25.7 µM·h
same,CL/F,[2],94.6 mL/day/kg
same,Cmax,[2],327 nM
same,Tmax,[2],24 h
same,half-life,[2],22.8 h
same,90th percentile Tier 2 inhibition (pre-existing anti-drug antibodies),[3],higher 90th percentile Tier 2 inhibition than polypeptides comprising SEQ ID NOs: 22 and 25
same,Pre-existing Reactivity 90th percentile T2 inhibition >50 donors,[3],37.9%
"[pGlu]GSPSGIVTS[αMeL]DVPT[Aib][αMeL]LQKILEQERAEKARQQAK([γGlu-AEEA-εLys-C20 diacid])EAAEILAQV-NH2 [SEQ ID NO: 22, Pyr-GSPSGIVTS αMeL DVPT Aib αMeL LQKILEQERAEKARQQAK(γE-(2-[2-(2-Amino-ethoxy)-ethoxy]-acetyl)-ϵK-CO-(CH2)18-CO2H)EAAEILAQV-NH2]",clearance,[1]; [12],9.89 mL/day/kg
same,half-life,[1]; [12],98.1 h
same,clearance,[1]; [13],9.41 mL/day/kg
same,half-life,[1]; [13],83.1 h
same,half-life,"[1]; both sexes, cynomolgus monkey, plasma, sc, 183 nmol/kg, single subcutaneous dose 183 nmol/kg, Mean",136 h
same,CL/F,"[1]; both sexes, cynomolgus monkey, plasma, sc, 183 nmol/kg, single subcutaneous dose 183 nmol/kg, Mean, read-out: CL/F (converted)",12.9 mL/day/kg
same,Tmax,"[1]; both sexes, cynomolgus monkey, plasma, sc, 183 nmol/kg, single subcutaneous dose 183 nmol/kg, Mean, read-out: Tmax",60 h
same,CL/F,"[1]; both sexes, cynomolgus monkey, plasma, sc, 183 nmol/kg, single subcutaneous dose 183 nmol/kg, individual animal, read-out: CL/F (converted)",12.5 mL/day/kg
same,Tmax,"[1]; both sexes, cynomolgus monkey, plasma, sc, 183 nmol/kg, single subcutaneous dose 183 nmol/kg, individual animal, read-out: Tmax",72 h
same,AUC0-inf,"[1]; both sexes, cynomolgus monkey, plasma, sc, single subcutaneous dose 183 nmol/kg, Mean, read-out: AUC0-inf",365 µM·h
same,Cmax,"[1]; both sexes, cynomolgus monkey, plasma, sc, single subcutaneous dose 183 nmol/kg, Mean, read-out: Cmax",2000 nM
same,AUC0-inf,"[1]; both sexes, cynomolgus monkey, plasma, single intravenous dose 183 nmol/kg, Mean, read-out: AUC0-inf",446 µM·h
same,C0,"[1]; both sexes, cynomolgus monkey, plasma, single intravenous dose 183 nmol/kg, Mean, read-out: C0",4740 nM
same,AUC0-inf,[1]; [14],467 µM·h and 424 µM·h
same,C0,[1]; [14],4160 nM and 5320 nM
same,CL,[1]; [14],10.3 mL/day/kg
same,T1/2,[1]; [14],113 h
same,AUC0-inf,[1]; [15],387 µM·h and 342 µM·h
same,CL/F,[1]; [15],13.2 mL/day/kg
same,Cmax,[1]; [15],1720 nM and 2280 nM
same,T1/2,[1]; [15],182 h and 90.2 h
same,Tmax,[1]; [15],48 h
same,AUC0-inf,[2],15 µM·h
same,CL/F,[2],162 mL/day/kg
same,Cmax,[2],270 nM
same,Tmax,[2],24 h
same,half-life,[2],25.1 h
same,Pre-existing Reactivity 90th percentile T2 inhibition >50 donors,[3],14.3%
